IC50 data for 18 compounds are collected here from patent US9688684B2, “Substituted tetrazolo[1,5-a]pyrazines as ROR-gamma inhibitors” (Merck Patent GmbH, priority 2013, dated 2017).

Each structure is given as a SMILES string.

The target in assay [1] is RORγ Ligand binding domain (RORγ-LBD, aa 238-497, NP_001001523) (Homo sapiens (Human), UniProt P51449). Kind of assay: ROR γ GAI4 Reporter Gene Assay (Mammalian one-hybrid, M1H) in 293T cells. It counts as cell-based. The source says: ROR γ GAI4 Reporter Gene Assay
RORγ Ligand binding domain (RORγ-LBD, aa 238-497, NP_001001523), sequence (P51449 259-518): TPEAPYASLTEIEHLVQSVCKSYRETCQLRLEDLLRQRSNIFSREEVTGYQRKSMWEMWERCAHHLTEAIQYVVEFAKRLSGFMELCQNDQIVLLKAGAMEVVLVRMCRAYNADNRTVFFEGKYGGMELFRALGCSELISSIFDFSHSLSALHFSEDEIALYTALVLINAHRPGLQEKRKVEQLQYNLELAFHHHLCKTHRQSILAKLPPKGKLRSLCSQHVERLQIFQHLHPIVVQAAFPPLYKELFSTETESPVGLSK
A Mammalian one-hybrid system is used to perform a cell-based functional transactivation assay for detecting RORγ activity modulators.
The Mammalian-1-Hybrid is derived from the Mammalian-2-Hybrid setup. Whereas in the latter, the binding partners are defined in their role as interaction, transactivation and DNA-binding components, the Mammalian-1-Hybrid makes use of the fact that all mammalian cell types express a set of Nuclear Receptors and their associated cofactors. […] A Gal4 minimal promoter driven luciferase construct (pFR-Luc from Stratagene, containing a synthetic promoter with five tandem repeats of the yeast GAL4 binding sites controlling expression of the Photinus pyralis luciferase gene) is used as reporter. The Gal4-DBD-NR-LBD fusion protein by itself cannot initiate transcription and is dependent on the presence of cofactors present in the cellular system used.
In order to rule out cytotoxic and unspecific transcriptional compound effects a transfection with a firefly luciferase driven by the constitutive CMV promoter is performed in parallel.
After transfection 18 μl complete MEM medium containing 3% charcoal-dextran treated FBS is added as well as 4 μl test compounds (DMSO stocks prediluted in OptiMem (Invitrogen)) followed by incubation for 16-24 h at 37° C., 5% CO2 and 90% rH.
Firefly luciferase activity is measured using the Promega ONE-Glo™ Luciferase Assay System.
(A reporter such as luciferase makes a cellular process visible.)

Assay [2] has as its target human RORγ ligand binding domain (GST-hRORγ-LBD) (Homo sapiens (Human), UniProt P51449). Kind of assay: TR-FRET assay (biochemical cofactor interaction assay, GST-hRORγ-LBD / TRAP220 peptide). The source says:
RORγ is an orphan member of the nuclear receptor (NR) family displaying constitutive activity. The activity of nuclear receptors can be modulated by ligand-induced cofactor protein interactions. For example, agonist binding leads to recruitment of coactivator protein, and antagonist binding either blocks coactivator interaction or facilitates the recruitment of corepressors. […] The conformational change induced by ligand binding influences interactions with LXXLL motif peptides.
RORγ (t) is a thymus-specific isoform of RORγ which is widely expressed. It shares the same ligand binding domain (LBD) sequence with RORγ. Thus, a screen using the LBD will yield antagonists targeting both RORγ and RORγt.
In order to identify compounds which block activity of the human nuclear receptor Retinoid-related Orphan Receptor gamma (RORγ) a biochemical cofactor interaction assay based on the TR-FRET principle is performed. […] The ligand-binding domain (LBD) of RORγ is expressed as fusion protein with GST in […] cells using the vector pDEST15. Cells are lysed by lysozyme-treatment and sonication, and the fusion proteins purified over glutathione sepharose (Pharmacia) according to the manufacturers instructions. The strong constitutive interaction is disrupted upon binding of functional antagonists. The strength of the interaction is monitored by TR-FRET between streptavidine APC interacting with the biotinylated peptide and Europium-labelled Anti-GST.

human RORγ ligand binding domain (GST-hRORγ-LBD), sequence (P51449 269-508): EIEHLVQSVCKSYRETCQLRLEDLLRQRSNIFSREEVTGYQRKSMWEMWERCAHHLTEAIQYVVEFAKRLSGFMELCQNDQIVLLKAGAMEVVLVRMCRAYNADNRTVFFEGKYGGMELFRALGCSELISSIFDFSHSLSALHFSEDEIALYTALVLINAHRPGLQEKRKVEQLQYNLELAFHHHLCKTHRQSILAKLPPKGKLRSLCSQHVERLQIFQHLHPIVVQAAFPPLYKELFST

`Fc1ccc(C2c3nnnn3CCN2Cc2cccs2)cc1` (stereo not drawn) [Compound 125, 8-(4-Fluoro-phenyl)-7-thiophen-2-ylmethyl-5,6,7,8-tetrahydro-tetrazolo[1,5-a]pyrazine]: the concentration for half-maximal inhibition (IC50) (in general, the concentration that inhibits the measured activity by half) in assay [1] is 9.9 to 40 µM; in assay [2] it was 0.99 to 9.9 µM.
In the same order, the values of `CC(C)c1nn(-c2ccccc2)cc1C1c2nnnn2CCN1Cc1cccs1` (racemic) [Compound 61, 8-(3-Isopropyl-1-phenyl-1H-pyrazol-4-yl)-7-thiophen-2-ylmethyl-5,6,7,8-tetrahydro-tetrazolo[1,5-a]pyrazine] are 0.01 to 0.99 µM and 0.01 to 0.99 µM.
In the same order, the values of `Fc1ccc(CN2CCn3nnnc3C2c2ccc3c(c2)OCCO3)cc1` (stereo not drawn) [Compound 133, 8-(2,3-Dihydro-benzo[1,4]dioxin-6-yl)-7-(4-fluoro-benzyl)-5,6,7,8-tetrahydro-tetrazolo[1,5-a]pyrazine] are 9.9 to 40 µM and 0.99 to 9.9 µM.
For `Fc1ccccc1C1c2nnnn2CCN1Cc1cccc(Br)c1` (stereo not drawn) [Compound 119, 7-(3-Bromo-benzyl)-8-(2-fluoro-phenyl)-5,6,7,8-tetrahydro-tetrazolo[1,5-a]pyrazine], in that order: 0.99 to 9.9 µM and 0.99 to 9.9 µM.
Turning to `Cc1cccc(CN2CCn3nnnc3C2c2ccc(F)cc2)c1` (racemic) [Compound 93, 8-(4-Fluoro-phenyl)-7-(3-methyl-benzyl)-5,6,7,8-tetrahydro-tetrazolo[1,5-a]pyrazine], the 50% inhibitory concentration (IC50) in assay [1] was 9.9 to 40 µM; in assay [2] it was 0.01 to 0.99 µM.
In the same order, the values of `Fc1ccc(CN2CCn3nnnc3C2c2cccc(F)c2)cc1` (racemic) [Compound 91, 7-(4-Fluoro-benzyl)-8-(3-fluoro-phenyl)-5,6,7,8-tetrahydro-tetrazolo[1,5-a]pyrazine] are 0.01 to 0.99 µM and 0.99 to 9.9 µM.
Turning to `CC(C)c1nn(-c2ccccc2)cc1CN1CCn2nnnc2C1c1cccs1` (stereo not drawn) [Compound 48, 7-(3-Isopropyl-1-phenyl-1H-pyrazol-4-ylmethyl)-8-thiophen-2-yl-5,6,7,8-tetrahydro-tetrazolo[1,5-a]pyrazine], the IC50 in assay [1] fell in the range of 9.9 to 40 µM; in assay [2], 0.01 to 0.99 µM.
In the same order, the values of `COc1ccc(C2c3nnnn3CCN2Cc2ccc(F)cc2)cc1` (stereo not drawn) [Compound 146, 7-(4-Fluoro-benzyl)-8-(4-methoxy-phenyl)-5,6,7,8-tetrahydro-tetrazolo[1,5-a]pyrazine] are 0.99 to 9.9 µM and 9.9 to 40 µM.
Take `CC(C)c1nn(-c2ccccc2)cc1C1c2nnnn2CCN1Cc1cccc(F)c1F` (stereo not drawn) [Compound 63, 7-(2,3-Difluoro-benzyl)-8-(3-isopropyl-1-phenyl-1H-pyrazol-4-yl)-5,6,7,8-tetrahydro-tetrazolo[1,5-a]pyrazine]: the IC50 in assay [1] is 0.01 to 0.99 µM; in assay [2], 9.9 to 40 µM.
As for `CC(C)c1nn(-c2ccccc2)cc1C1c2nnnn2CCN1Cc1cccs1` (single isomer, unassigned) [Compound 61-b, 8-(3-Isopropyl-1-phenyl-1H-pyrazol-4-yl)-7-thiophen-2-ylmethyl-5,6,7,8-tetrahydro-tetrazolo[1,5-a]pyrazine], the half-maximal inhibitory concentration (IC50) lay in the range of 0.99 to 9.9 µM in assay [1] and 9.9 to 40 µM in assay [2].
For `Cc1ccc(CN2CCn3nnnc3C2c2ccc(OC(C)C)cc2)o1` (stereo not drawn) [Compound 142, 8-(4-Isopropoxy-phenyl)-7-(5-methyl-furan-2-ylmethyl)-5,6,7,8-tetrahydro-tetrazolo[1,5-a]pyrazine], in that order: 9.9 to 40 µM and 9.9 to 40 µM.
On to `Fc1cc(F)cc(C2c3nnnn3CCN2Cc2cccc(Br)c2)c1` (stereo not drawn) [Compound 107, 7-(3-Bromo-benzyl)-8-(3,5-difluoro-phenyl)-5,6,7,8-tetrahydro-tetrazolo[1,5-a]pyrazine], for which the IC50 fell in the range of 9.9 to 40 µM in assay [1] and 0.01 to 0.99 µM in assay [2].
For `CC(C)c1nn(-c2ccccc2)cc1C1c2nnnn2CCN1Cc1cnn(Cc2ccccc2)c1` (stereo not drawn) [Compound 161, 7-(1-Benzyl-1H-pyrazol-4-ylmethyl)-8-(3-isopropyl-1-phenyl-1H-pyrazol-4-yl)-5,6,7,8-tetrahydro-tetrazolo[1,5-a]pyrazine], in that order: 0.99 to 9.9 µM and 0.99 to 9.9 µM.
For `Cc1cccc(CN2CCn3nnnc3C2c2ccc(OC(C)C)cc2)c1` (stereo not drawn) [Compound 99, 8-(4-Isopropoxy-phenyl)-7-(3-methyl-benzyl)-5,6,7,8-tetrahydro-tetrazolo[1,5-a]pyrazine], in that order: 0.99 to 9.9 µM and 0.01 to 0.99 µM.
Take `CC(C)(C)c1nn(Cc2ccccc2)cc1C1c2nnnn2CCN1Cc1cccs1` (stereo not drawn) [Compound 160, 8-(1-Benzyl-3-tert-butyl-1H-pyrazol-4-yl)-7-thiophen-2-ylmethyl-5,6,7,8-tetrahydro-tetrazolo[1,5-a]pyrazine]: the half-inhibitory concentration (IC50) in assay [1] is 0.99 to 9.9 µM; in assay [2], 9.9 to 40 µM.
For `Fc1cc(F)cc(C2c3nnnn3CCN2Cc2ccccc2)c1` (stereo not drawn) [Compound 101, 7-Benzyl-8-(3,5-difluoro-phenyl)-5,6,7,8-tetrahydro-tetrazolo[1,5-a]pyrazine], in that order: 9.9 to 40 µM and 0.01 to 0.99 µM.
In the same order, the values of `Cc1cccc(CN2CCn3nnnc3C2c2cccc(F)c2)c1` (stereo not drawn) [Compound 116, 8-(3-Fluoro-phenyl)-7-(3-methyl-benzyl)-5,6,7,8-tetrahydro-tetrazolo[1,5-a]pyrazine] are 0.99 to 9.9 µM and 0.99 to 9.9 µM.
For `Fc1ccccc1C1c2nnnn2CCN1Cc1cccs1` (stereo not drawn) [Compound 137, 8-(2-Fluoro-phenyl)-7-thiophen-2-ylmethyl-5,6,7,8-tetrahydro-tetrazolo[1,5-a]pyrazine], in that order: 9.9 to 40 µM and 0.99 to 9.9 µM.
